Tests used:
[1] = system: fibrotic lung tissue explants; experiment: Ex vivo treatment of fibrotic lung tissue explants of BLM mice, col-I and α-SMA by Western blotting; assay type: cell-based; conditions: CSP-4 10 nM, nutlin-3a 10 μM, 72 h
Description: FIG. 13. Inhibition of BLM-induced pulmonary fibrosis by ex vivo treatment of WT mice lung tissues with CSP-4 or nutlin-3a (NTL). Mice were exposed to intranasal BLM for 21 d to induce pulmonary fibrosis. These mice (n=3) were sacrificed, lungs were excised, chopped into small pieces and placed in culture dishes with DMEM medium containing 10% fetal bovine serum. The tissue samples were later treated with CSP-4 (10 nM), control peptide (CP) and nutlin-3a (TL) (10 μM) for 72 h. Conditioned medium and tissue lysates were prepared and analyzed for changes in col-I, a-SMA and β-actin by Western blotting.
Mice were exposed to intranasal BLM for 21 d to induce pulmonary fibrosis, sacrificed, and their lungs excised and chopped into small pieces and placed into culture medium. These tissue samples were thereafter treated with 10 nM CSP-4 peptide, control peptide (CP) or nutlin-3a for 72 h. Conditioned medium and tissue lysates were and analyzed for changes in col-I and α-SMA by Western blotting. […] The present inventors' results provided herein and in recent reports (e.g., Bhandary et al, 2012, 2013, supra), strongly support the conception that p53-mediated downstream changes in uPA and PAI-1 regulates viability of FL-fibroblasts.

FL-fibroblasts [2] = experiment: Treatment of FL-fibroblasts with nutlin-3a or CSP-4 (findings stated in the summary); assay type: cell-based; conditions: for miR-34a expression / production of ECM / uPAR expression: FL-fibroblasts
FL-fibroblasts [3] = experiment: Proliferation of cultured FL-fibroblasts (cell count); assay type: cell-based, human; conditions: cells counted after 3 d
Description: (§1) FIGS. 8A-8C. Role of p53-fibrinolytic system cross-talk in nutlin-3a (NTL) or CSP-4-mediated inhibition of col-I expression in FL(IPF)-fibroblasts. (FIG. 8A) FL-fibroblasts were exposed to PBS, nutlin-3a (10 uM), CSP-4 (10 nM) or control peptide (CP) for 48 h. The cell lysates were immunoblotted for the expression of Col-I, PAI-1, p53, uPA and β-actin. (FIG. 8B) FL-fibroblasts cultured in 12 well plates in DMEM media were exposed to vehicle (PBS) or nutlin-3a, CSP-4 or CP. After 3 d, cells were detached and counted. (FIG. 8C) FL-fibroblasts were transduced with empty adenovirus vector alone (Ad-EV) or Ad-vector expressing p53 (Ad-p53), PAI-1 (Ad-PAI-1) or caveolin-1 (Ad-Cav-1). After 48 h, cell lysates were immunoblotted for Col-I, p53, PAI-1, uPA and β-actin.
(§2) FL-fibroblasts were exposed to PBS (control), nutlin-3a (10 μM), CSP-4 (10 nM) or CP for 48 hrs. Lysates were immunoblotted for the expression of Col-I, PAI-1, p53, and uPA. Cultured FL- were exposed to vehicle (PBS) or nutlin-3a, CSP-4 or CP and counted to assess proliferation. […] The process involves induction of p53 and PAI-1 expression, and concurrent inhibition of uPA.

FL(IPF)-tissues = experiment: Ex vivo treatment of FL-lung tissues from IPF patients; assay type: cell-based, human; conditions: for PAI-1 levels in fibroblasts isolated from IPF explants / Phosphorylation of Akt in fibroblasts from IPF explants / expression of PDGFR-β mRNA and protein in fibroblasts from IPF explants / miR-34a levels in fibroblasts isolated from IPF explants / p53 levels in fibroblasts isolated from IPF explants / uPA expression in fibroblasts isolated from IPF explants / uPAR expression in fibroblasts isolated from IPF explants / ECM synthetic rates of FL-lung explants: nutlin-3a 10 μM or CSP-4 10 nM, 3 to 7 days; for ECM synthetic rates of FL-lung explants: vs untreated, vehicle or CP; for production of ECM of fibroblasts from IPF explants / rate of proliferation of fibroblasts from IPF explants: vs FL-fibroblasts from untreated, vehicle- or CP-treated controls
Description: Freshly dissected FL-lung tissues from IPF patients are treated with nutlin-3a (10 μM) or CSP-4 (10 nM) for 3 to 7 days (see FIG. 13). Lung tissues are homogenized and tested for changes in ECM (hydroxyproline and desmosine). Controls include fibrotic lung (FL)-tissues from IPF patients treated with vehicle or control peptide, CP or naive lung tissues maintained in culture medium. Other controls include NL-tissues resected from histologically “normal” lungs. De-identified patient (“normal” and IPF) lungs that were not suitable for transplantation and donated for medical research are obtained through HAM (Edison, NJ) and the NDRI (Philadelphia, PA) and used for ex vivo studies. Fibroblasts are isolated from these tissues and analyzed for changes in p53, uPA, uPAR and PAI-1 expression, production of ECM and viability. Changes in rate of ECM synthesis are also measured. FL-tissue explants from patients with IPF have elevated synthesis of ECM when compared to expression levels in the slices of NL-tissues from control subjects. […] Phosphorylation of Akt and expression of PDGFR-β mRNA and protein also are reduced in fibroblasts from IPF explants treated with nutlin-3a or CSP-4.

FL(IPF)-fibroblasts = experiment: Immunoblot of FL-fibroblast lysates for Col-I, PAI-1, p53 and uPA after exposure to nutlin-3a or CSP-4; assay type: cell-based, human; conditions: nutlin-3a 10 μM, CSP-4 10 nM, 48 hrs
Description: as §1, §2

| Compound | fibrosis ex vivo (changes in col-I and α-SMA) [1] | miR-34a expression (FL-fibroblasts [2]) | production of ECM (FL-fibroblasts [2]) | uPAR expression (FL-fibroblasts [2]) | apoptosis of fibrotic fibroblasts (FL-fibroblasts [2]; fibroblasts from lungs of patients with IPF and of mice with BLM-induced pulmonary fibrosis) | proliferation of FL-fibroblasts (FL-fibroblasts [3]) | PAI-1 levels in fibroblasts isolated from IPF explants (FL(IPF)-tissues) | Phosphorylation of Akt in fibroblasts from IPF explants (FL(IPF)-tissues) | expression of PDGFR-β mRNA and protein in fibroblasts from IPF explants (FL(IPF)-tissues) | miR-34a levels in fibroblasts isolated from IPF explants (FL(IPF)-tissues) | p53 levels in fibroblasts isolated from IPF explants (FL(IPF)-tissues) | uPA expression in fibroblasts isolated from IPF explants (FL(IPF)-tissues) | uPAR expression in fibroblasts isolated from IPF explants (FL(IPF)-tissues) | ECM synthetic rates of FL-lung explants (FL(IPF)-tissues) | production of ECM of fibroblasts from IPF explants (FL(IPF)-tissues) | rate of proliferation of fibroblasts from IPF explants (FL(IPF)-tissues) | PAI-1 expression (FL(IPF)-fibroblasts) | col-I expression (FL(IPF)-fibroblasts) | p53 expression (FL(IPF)-fibroblasts) | uPA expression (FL(IPF)-fibroblasts) |
| --- | --- | --- | --- | --- | --- | --- | --- | --- | --- | --- | --- | --- | --- | --- | --- | --- | --- | --- | --- | --- |
| COc1ccc(C2=NC(c3ccc(Cl)cc3)C(c3ccc(Cl)cc3)N2C(=O)N2CCNC(=O)C2)c(OC(C)C)c1 (stereo not drawn) [nutlin-3a, 4-2-4,5-dihydro-1H-imidazole-1-piperazin-2-one] | inhibited | restore | inhibits | inhibition | results in apoptosis | inhibited | elevated levels | reduced | reduced | elevated levels | elevated levels | reduced | reduced | significantly reduced | significantly lower | significantly lower | induction | inhibited | induction | inhibition |
| FTTFTVT [CSP-4] | inhibited | restore | inhibits | inhibition | – | inhibited | elevated levels | reduced | reduced | elevated levels | elevated levels | reduced | reduced | significantly reduced | significantly lower | significantly lower | induction | inhibited | induction | inhibition |

From patent US12173089B2, “Inhibition of pulmonary fibrosis with nutlin-3A and peptides” (BOARD OF REGENTS, THE UNIVERSITY OF TEXAS SYSTEM, priority 2013, dated 2024)
